We go through one compound from patent US20170007561A1, “CONTEMPORANEOUS, HETEROGENEOUSLY-ORIENTED, MULTI-TARGETED THERAPEUTIC MODIFICATION AND/OR MODULATION OF DISEASE BY ADMINISTRATION OF SULFUR-CONTAINING, AMINO ACID-SPECIFIC SMALL MOLECULES” (BioNumerik Pharmaceuticals, Inc., priority 2014, published 2017).

Entries after “also recorded” stand apart in the source; their conditions may differ. Where only a bound is given, the exact number is not on record here.

In series [1] the target is human peroxiredoxin 4 (PRX4) (Homo sapiens, UniProt Q13162). As to the kind of experiment: X-ray crystallography and Mass Spectrometry of Prx 4 with Tavocept-derived mesna. As to conditions: 40 mM Tavocept; MS and X-ray.
Chain of human peroxiredoxin 4 (PRX4) (Q13162 79-271 limits assumed): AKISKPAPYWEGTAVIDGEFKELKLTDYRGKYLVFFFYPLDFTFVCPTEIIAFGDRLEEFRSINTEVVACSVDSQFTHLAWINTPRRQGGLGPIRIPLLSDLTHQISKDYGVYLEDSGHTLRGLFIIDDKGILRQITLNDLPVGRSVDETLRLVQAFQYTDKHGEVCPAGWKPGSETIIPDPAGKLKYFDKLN
Series [2] relates to Stage IV primary adenocarcinoma of the lung. Put plainly: Tavocept Phase III Clinical Trial (interim analysis). The series is classed as in vivo, human. The source says: In the Tavocept Phase III Clinical Trial pre-specification was made through stratification factors including sex (i.e., male versus female) and taxane treatment (i.e., paclitaxel versus docetaxel). Eligible patients had not received prior drug treatment for their cancer, and inclusion in the trial was also allowed for patients who had relapsed following surgery for earlier stage disease as well as patients with central nervous system metastasis. A total of 540 patients were enrolled on the trial.
The primary endpoint of this study was overall survival (OS); defined as the time period from the date of patient randomization to the date of death due to any cause.
Patient eligibility was determined by compliance with protocol-specified inclusion and exclusion criteria.
All patients received standard combination chemotherapy (taxane agent plus cisplatin) and either Tavocept or placebo.
Treatment was administered every 3 weeks for a maximum of 6 cycles (one treatment cycle=21 days).
The primary endpoint for analysis was the duration of overall survival, defined as the time from the date of randomization to the date of death due to any cause. The number of mortality events used for the final analysis depended upon the number of patients enrolled into the study (provided the sample size was adjusted at the interim analysis). For the primary analysis, the expected number of total mortality events was approximately 416 mortality events for a sample size of 575 patients.
The one-sided log-rank test was performed in order to allow the application of the adaptive methodology. Details of this 2-stage adaptive design are described below. Kaplan-Meier survival curves (including identification of censored observations) was presented by treatment group, as well as median survival times and their 95% confidence intervals.
The following specific endpoints were evaluated with pre-specified analyses in order to evaluate for potential clinically and statistically significant differences between Tavocept- and placebo-treated patients.
The incidence of cisplatin renal toxicity and anemia, and the impact of emesis on daily life were analyzed using the Cochran-Mantel-Haenszel (CMH) tests for proportions. The CMH test was applied in the comparison between Tavocept and placebo where adjustment for prognostic factors is clinically important (e.g., adjusting for baseline characteristics). To control for Type I error due to multiple comparisons of safety data, a nominal, 2-sided p-value of less than 0.0125 was used for each comparison of renal toxicity, anemia, and emesis.

The subject of series [3] is bovine brain microtubule protein (α-/β-tubulin). As to the kind of experiment: Microtubule protein polymerization assay (OD350). Format: biochemical.
The test system of series [4] is human breast, ovarian and lymphoma cancer cell lines. Put plainly: Paclitaxel induced apoptosis (PARP cleavage, Bcl-2 phosphorylation, DNA laddering). The series is classed as cell-based. The source says: Tavocept mediates the non-enzymatic xenobiotic modification of sulfur-containing amino acid residues (e.g., cysteine) on proteins. As an engineered, non-naturally occurring agent (i.e., xenobiotic), Tavocept is autocatalytic and requires no protein cofactor to cause the xenobiotic modification of cysteine, but appears to be specific for cysteine residues located within a particular structural context (i.e., not all cysteines in a protein are so modified). Tavocept-mediated, xenobiotic modification represents a novel mechanism of action for a cancer treating agent and can be compared to a degree with post-translational modifications of cysteine residues in proteins (see, Table 3, below).

Series [5] concerns the target T1, Anaplastic Lymphoma Kinase (ALK) (Homo sapiens, UniProt Q9UM73).
T1 construct: illustrates the kinase domain of ALK (residues 1058-1623) which was used in these experiments; 6xHis (N); purchased Millipore lot 32944U-H (catalogue number not given); host or cells: baculovirus / Sf21
Put plainly: ALK kinase activity (summary Table 27). Format: biochemical.

The target in the next series is T2, FTase (Homo sapiens, UniProt P49354+P49356).
T2 construct: purchased Abcam
T2 sequence (P49356 whole entry, one chain of several): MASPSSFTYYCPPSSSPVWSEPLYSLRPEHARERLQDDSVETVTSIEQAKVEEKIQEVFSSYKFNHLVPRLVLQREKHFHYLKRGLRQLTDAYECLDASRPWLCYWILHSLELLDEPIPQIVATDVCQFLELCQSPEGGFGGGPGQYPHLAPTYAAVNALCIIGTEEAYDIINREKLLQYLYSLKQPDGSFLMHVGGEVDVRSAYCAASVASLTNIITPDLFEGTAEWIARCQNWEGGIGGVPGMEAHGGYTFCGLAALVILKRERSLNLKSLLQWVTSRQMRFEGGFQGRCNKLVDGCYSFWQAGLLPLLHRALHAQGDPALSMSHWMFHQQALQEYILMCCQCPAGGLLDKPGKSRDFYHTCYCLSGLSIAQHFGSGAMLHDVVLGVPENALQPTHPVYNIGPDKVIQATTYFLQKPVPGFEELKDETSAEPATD
As to the kind of experiment: FTase-mediated farnesylation of Dansyl-GCVLS peptide. The series is classed as biochemical. The source says: Panel A: Progress curve showing FTase-mediated farnesylation of Dansyl-GCVLS peptide. Panel B: Relative rates from reactions shown in Panel A.

A further series deals with γ-Glutamyltranspeptidase (Homo sapiens, UniProt P19440). Put plainly: γ-Glutamyltranspeptidase activity (summary Table 27). The series is classed as biochemical.
Chain of γ-Glutamyltranspeptidase (P19440 whole entry): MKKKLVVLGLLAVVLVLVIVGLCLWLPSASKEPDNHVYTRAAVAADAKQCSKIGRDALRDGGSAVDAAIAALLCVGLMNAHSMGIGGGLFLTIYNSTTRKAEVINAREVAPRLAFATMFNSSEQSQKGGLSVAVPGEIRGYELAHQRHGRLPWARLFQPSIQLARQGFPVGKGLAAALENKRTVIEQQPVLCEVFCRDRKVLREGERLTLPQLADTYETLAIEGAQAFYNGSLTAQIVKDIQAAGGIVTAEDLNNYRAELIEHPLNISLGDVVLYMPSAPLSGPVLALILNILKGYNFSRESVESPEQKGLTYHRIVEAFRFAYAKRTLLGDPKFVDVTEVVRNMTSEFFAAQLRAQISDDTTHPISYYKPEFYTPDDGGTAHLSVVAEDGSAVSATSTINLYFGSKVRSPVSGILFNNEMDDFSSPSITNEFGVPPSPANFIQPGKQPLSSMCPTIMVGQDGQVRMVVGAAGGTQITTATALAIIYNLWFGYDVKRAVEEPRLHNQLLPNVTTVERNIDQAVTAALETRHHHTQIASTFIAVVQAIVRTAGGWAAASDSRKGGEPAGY

T1 sequence (Q9UM73 1058-1620 limits assumed): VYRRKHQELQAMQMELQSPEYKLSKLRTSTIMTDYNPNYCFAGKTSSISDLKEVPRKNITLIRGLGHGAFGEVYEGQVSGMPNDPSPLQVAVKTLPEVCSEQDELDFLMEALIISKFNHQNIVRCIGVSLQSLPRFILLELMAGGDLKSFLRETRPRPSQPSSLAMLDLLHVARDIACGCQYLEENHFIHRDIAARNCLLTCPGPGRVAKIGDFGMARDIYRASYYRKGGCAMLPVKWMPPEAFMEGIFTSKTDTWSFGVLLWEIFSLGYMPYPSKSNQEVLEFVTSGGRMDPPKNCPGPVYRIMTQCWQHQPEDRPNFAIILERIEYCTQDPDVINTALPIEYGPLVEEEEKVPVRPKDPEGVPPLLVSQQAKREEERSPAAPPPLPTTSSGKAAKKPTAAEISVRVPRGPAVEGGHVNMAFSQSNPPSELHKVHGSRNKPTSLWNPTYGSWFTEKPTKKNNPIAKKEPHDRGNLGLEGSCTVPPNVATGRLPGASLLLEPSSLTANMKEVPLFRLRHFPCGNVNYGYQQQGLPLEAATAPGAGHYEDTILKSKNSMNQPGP

Turning to `O=S(=O)([O-])CCSSCCS(=O)(=O)[O-].[Na+].[Na+]` [Tavocept, disodium 2,2′-dithio-bis-ethane sulfonate], the “Prx 4 cysteine residues carrying Tavocept-derived mesna moiety” value in series [1] is recorded as “Cys124; also recorded: cysteine 124 (and possibly cysteine 245)”. The “Median survival advantage versus placebo” value turned out to be 12 months in series [2] (Male & Female Non-Smokers receiving paclitaxel and cisplatin); 4.0 months in series [2] (PS 1 ECOG Performance Status males and females receiving paclitaxel and cisplatin); 2.1 months in series [2] (female subjects greater than or equal to 65 years of age receiving paclitaxel and cisplatin); 3.5 months in series [2] (male and female subjects greater than or equal to 65 years of age receiving paclitaxel and cisplatin); 3 months in series [2] (subjects greater than or equal to 65 years of age). Also, the “Overall median survival advantage versus placebo” value in series [2] (all subjects, paclitaxel or docetaxel plus cisplatin) is “greater than 2 month”. The “Protection against chemotherapy-induced kidney toxicity” value in series [2] (compared to placebo) was “improvement in the relative creatine decrease from baseline in favor of Tavocept”. The Anemia result in series [2] (compared to placebo arm) was “reduced anemia”. Besides, in series [2] (during administration of up to 6 cycles, relative to Placebo arm), the “Kaplan Meier overall survival curve slope” value was “flattening of the slope of the survival curve for the Tavocept arm”. The “Survival advantage” value in series [2] (female subjects with CNS Metastases present, paclitaxel plus cisplatin) is “Survival advantage in favor of Tavocept”. The “Median period of additional survival after starting new chemotherapy, longer than placebo-treated patients” value in series [2] (patients previously receiving Tavocept, paclitaxel and cisplatin) was determined as 3.4 months. In series [3] (12 mM Tavocept, qualitative), the “inhibition of paclitaxel promoted microtubule protein polymerization” value was “approximately 50%”. The “effect on paclitaxel-promoted microtubule protein hyperpolymerization” value in series [3] (Tavocept 1, 4, 8, 12 and 16 mM, paclitaxel 10 μM) is on record as “inhibit paclitaxel-promoted microtubule protein hyperpolymerization in a dose-dependent manner; also recorded: normalizes”. For the same compound, the “effect on GTP-catalyzed polymerization of microtubule protein” value in series [3] (Tavocept 4, 6, 8, and 10 mM preincubated with microtubule protein on ice for 20 minutes) is “dose-dependent inhibitory effect; also recorded: inhibit GTP-catalyzed polymerization; also recorded: modulate tubulin polymerization in a concentration dependent manner”. Further, the “effect on paclitaxel/GTP/MgCl2-catalyzed microtubule protein hyperpolymerization” value in series [3] (Tavocept 6, 8, 10 and 12 mM) is “inhibit paclitaxel/GTP/MgCl2-catalyzed microtubule protein hyperpolymerization in a dose dependent manner”. For the same compound, the “Tavocept concentration at which final polymerization with paclitaxel was essentially equal to GTP control” value in series [3] (paclitaxel 10 μM) is no less than 6 mM. The “Tavocept concentrations that reproducibly inhibit paclitaxel promoted hyperpolymerization” value in series [3] (paclitaxel 10 μM) was greater than 1 mM. In series [3] (paclitaxel/GTP/MgCl2 10 μM/1 mM/1 mM), the “Tavocept concentrations giving net polymerization equivalent to GTP/MgCl2 only control” value lay in the range of 6 to 8 mM. For the same compound, in series [4], the “interference with paclitaxel induced apoptosis” value is listed as “does not interfere”. For the same compound, the “Cellular consequence of BNP7787-modification and/or modulation: ALK” value in series [5] is reported as “BNP7787 disrupts/blocks ATP binding site resulting in inhibition”. Further, the “effect on FTase activity” value on FTase is “Inhibition of FTase activity”. On γ-Glutamyltranspeptidase, the “Cellular consequence of BNP7787-modification and/or modulation: γ-glutamyltranspeptidase” value is “can inhibit γ-glutamyltranspeptidase and aminopeptidase N enzyme”.
